Source: patent US20200157135A1, “SIDE-CHAIN MODIFIED ERGOSTEROL AND STIGMASTEROL DERIVATIVES AS LIVER X RECEPTOR MODULATORS” (Ospedale San Raffaele srl, priority 2017, published 2020)
Where two headings read alike, the source gives them in different places.

Tests used:
TNFα = assay: qPCR of TNFα expression in differentiated U937 cells treated with LPS; assay type: cell-based, human; details: differentiated U937, 6 hours, 10 μM in combination with LPS (100 ng/ml)
Method: (§1) U937 cells differentiated with PMA for 72 hours were treated with LPS (100 ng/ml) in combination with T0901317 (10 μM) or with the title compounds (10 μM). […] (n=3/group). *p<0.05, **p<0.01, ***p<0.001.
(§2) Quantitative Real-Time-PCR. U937 cell line was differentiated in foam macrophages with phorbol 12-myristate 13-acetate (PMA) 10 ng/ml (Sigma) for 72 hours at 37° C. in […] at the concentration of 3×10^6 cells in 10 ml RPMI 10% FBS. At day 3 nuclear receptor ligands were added for 6 hours. HepG2 cells were treated with the ligands as described by Quinet et al.22 Total RNA was purified by TRIZOL (Invitrogen, Carlsbad, Calif., USA). Reverse transcription was performed incubating 2 μg of total RNA 1 hour at 42° C. with MLV-reverse transcriptase (Promega). Quantitative PCR was performed using Sybr Green Master Mix (Applied Biosystems) and real-time PCR (Viia 7 Real Time PCR System, Applied Biosystems). All PCR reactions were done in triplicate. The comparative Ct method was used to quantify transcripts that were normalized for human GAPDH. the following primer pairs were used: […]

hPXR = assay: luciferase assay GAL4-hPXR in human embryonic kidney 293 cells; assay type: cell-based; details: compounds at 10 μM
Method: Human embryonic kidney 293 cells were co-transfected with GAL4-hRXR (A), GAL4-hPPARγ (B), GAL4-hPXR (C) and GAL4-hFXR (D) expression plasmids together with GAL4 responsive element pMHC100X4-TK-luc and Renilla plasmids. Cells were incubated with vehicle (DMSO), PFMs at the concentration of 10 μM, and the nuclear receptor specific ligands 9cis retinoic acid (100 nM) (A), Rosiglitazone (RSG 100 nM) (B), T0901317 (100 nM) (C) and GW4064 (100 nM) (D) for six hours. The values represent mean±S.D. RLA, relative luciferase activity.
The selectivity of our compounds within the nuclear receptor superfamily was also evaluated by luciferase assays using GAL4-RXR, -PPARγ, -PXR and -FXR plasmids.
(§3) Cell Culture and Co-transfection Assays. Human embryonic Kidney 293 cells (American Type Culture Collection) were cultured in Dulbecco's Modified Eagle's medium containing 10% of fetal bovine serum at 37° C. in humidified atmosphere of 5% CO2. HEK293 cells (4×10^4 cells per well) were transiently transfected in 48 well plate with the reporter plasmids pMH100X4-TK-luc (100 ng/well), Renilla (22 ng/well) together with 100 ng/well of pCMX-Gal4-RXR, pCMX-Gal4-PPAR-γ, pCMX-Gal4-PXR, pFA-CMV-FXR pCMX-Gal4-LXR-α or pCMX-Gal4-LXR-β plasmids using X-tremeGENE 9 DNA Transfection Reagent (Roche). Six hours after transfection, the cells were treated with the appropriate compound for 24 hours. Luciferase activities were analyzed by luciferase Dual Reporter Assay Systems (Promega) according to the manufacturer's protocol. GAL4-LXRs, GAL4-PPAR-γ, GAL4-RXR and TK-MHC100-luc plasmids were described in Villablanca et al.49 GAL4-PXR was a kind gift of Dr. Enrique Sainz (The Scripps Research Institute, La Jolla, USA). GAL4-FXR was a kind gift of Dr. Daniel Merk (Goethe-University Frankfurt am Main). The results obtained by luciferase assays and reported in Table 1 are from three to five independent experiments.

hLXRα = biological target: T1, hLXRα (Homo sapiens, UniProt Q13133); assay: luciferase assay with GAL-4 chimeric hLXRα receptor in human embryonic kidney 293 cells; assay type: cell-based; details: for Emax: HEK293, 24 h, read-out: LXRα Efficacy (%) ± SD; for LXR isoform selectivity profile: LXRα versus LXRβ, GAL4 luciferase assays
T1 sequence (Q13133 209-447 limits assumed): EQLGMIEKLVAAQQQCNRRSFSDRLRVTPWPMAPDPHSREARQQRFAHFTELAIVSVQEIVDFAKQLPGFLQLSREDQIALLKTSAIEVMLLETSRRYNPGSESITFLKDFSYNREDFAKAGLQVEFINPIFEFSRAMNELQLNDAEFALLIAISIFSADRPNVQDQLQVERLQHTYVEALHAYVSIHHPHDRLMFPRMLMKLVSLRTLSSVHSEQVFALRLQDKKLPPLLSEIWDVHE
Method: (§4) All the synthesized compounds were first tested for their ability to activate LXRs by using luciferase assays with GAL-4 chimeric receptors. These were performed by co-transfecting plasmids encoding hLXRα- and β-binding domains fused to GAL-4, with the respective responsive element conjugated with the luciferase reporter gene into the human embryonic kidney 293 cells.
as §3
(§5) Statistical analysis. Data are expressed as mean±SEM and were analyzed for significance by ANOVA with Dunnet's multiple comparison tests. The analysis was performed with Prism software. Data in Table 1 are expressed as EC50±SD. In particular, the standard deviations were obtained by calculating the mean of the EC50 of each experiment (three to five independent experiments). The efficacy (%) of the compounds was calculated as the percentage of the compound effect, in terms of LXRα or β activation, versus 8 μM of 22R—HC±SD. The analyses were performed with Prism software.

MCP-1/CCL2 = assay: qPCR of CCL2 expression in differentiated U937 cells treated with LPS; assay type: cell-based, human; details: differentiated U937, 6 hours, 10 μM in combination with LPS (100 ng/ml)
Method: as §1, §2

hLXRβ = biological target: T2, hLXRβ (Homo sapiens, UniProt P55055); assay: luciferase assay with GAL-4 chimeric hLXRβ receptor in human embryonic kidney 293 cells; assay type: cell-based
T2 sequence (P55055 222-460 limits assumed): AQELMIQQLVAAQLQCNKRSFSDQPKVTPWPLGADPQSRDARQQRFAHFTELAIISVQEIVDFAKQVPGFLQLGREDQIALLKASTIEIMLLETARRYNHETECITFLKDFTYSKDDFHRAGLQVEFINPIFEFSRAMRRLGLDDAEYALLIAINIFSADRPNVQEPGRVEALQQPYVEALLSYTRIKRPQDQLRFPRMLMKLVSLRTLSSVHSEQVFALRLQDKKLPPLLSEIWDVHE
Method: as §4, §3, §5

[1] = GAL4-hLXRα luciferase, HEK293, dose-response 32-1 μM, mean of three-five independent experiments, read-out: LXRα EC50 (μM) ± SD
[2] = % of compound effect versus 8 μM of 22R-HC

| Structure (SMILES) | PXR activation (hPXR) | EC50 (hLXRα; [1]) [µM] | Emax (hLXRα; [2]) [%] | LXR isoform selectivity profile (hLXRα) | inhibition of CCL2 expression (MCP-1/CCL2) | other results |
| --- | --- | --- | --- | --- | --- | --- |
| CC(C)[C@@H](C)[C@@H](O)C[C@@H](C)[C@H]1CC[C@H]2C3=CC=C4C[C@@H](O)CC[C@]4(C)[C@H]3CC[C@]12C [Compound 21, (23S)-3β-Ergost-5,7-diene-3,23-diol] | slight activation of PXR | 8.07 ± 1.6 | 159 ± 41.3 | selective LXRα agonists | same grade of potency of the positive control T0901317 | inhibition of TNFα expression (TNFα): the most active |
| CC(C)[C@@H](C)C[C@H](O)[C@@H](C)[C@H]1CC[C@H]2C3=CC=C4C[C@@H](O)CC[C@]4(C)[C@H]3CC[C@]12C [Compound 22, (22S)-3β-Ergost-5,7-diene-3,22-diol] | slight activation of PXR | 6.61 ± 1.69 |  |  | same grade of potency of the positive control T0901317 | EC50 (hLXRβ; GAL4-hLXRβ luciferase, HEK293, dose-response 32-1 μM, mean of three-five independent experiments, read-out: LXRβ EC50 (μM) ± SD): 1.96 ± 0.1 µM |
| CC(C)[C@@H](C)[C@H](O)C[C@@H](C)[C@H]1CC[C@H]2C3=CC=C4C[C@@H](O)CC[C@]4(C)[C@H]3CC[C@]12C [Compound 23, (23R)-3β-Ergost-5,7-diene-3,23-diol] |  | 15.8 ± 0.65 | 63.9 ± 26.9 |  |  |  |
| CC(C)[C@@H](C)C(=O)C[C@@H](C)[C@H]1CC[C@H]2C3=CC=C4C[C@@H](O)CC[C@]4(C)[C@H]3CC[C@]12C [Compound 27, 3β-Hydroxyergost-5,7-diene-23-one] |  | 5.58 ± 0.3 | 151 ± 4.8 | selective LXRα agonists |  |  |
| CC(C)[C@@H](C)CC(=O)[C@@H](C)[C@H]1CC[C@H]2C3=CC=C4C[C@@H](O)CC[C@]4(C)[C@H]3CC[C@]12C [Compound 28, 3β-Hydroxyergost-5,7-diene-22-one] |  | 8.51 ± 0.42 | 70.2 ± 3.9 | selective LXRα agonists |  |  |
| CC[C@](O)(CC[C@@H](C)[C@H]1CCC2C3CC=C4C[C@@H](O)CC[C@]4(C)C3CC[C@@]21C)C(C)C (some centres unmarked) [Compound 29] |  |  |  |  |  | EC50 (hLXRβ): 3.21 ± 0.6 µM; Emax (hLXRβ; HEK293, 24 h, read-out: LXRβ Efficacy (%) ± SD, % of compound effect versus 8 μM of 22R-HC): 48.4 ± 5%; beta/alfa efficacy ratio (hLXRβ; LXRβ efficacy over LXRα efficacy): 4.4; EC50 (hLXRα): 3.72 ± 0.5 µM; Emax (hLXRα): 11 ± 4.08% |
